In a melting point compilation (Tetko et al.; mined from patent text by program, amines drawn as free bases though some values may be those of a salt):

Compared with `O=[N+]([O-])c1c(SCc2ccccc2)ccc2ccncc12`, `CCOCCNC(=O)C(c1ccccc1)c1ccccc1` is lower in melting point: 151 to 153 °C for the first, 83.5 to 86.2 °C for the second.

Compared with `Oc1nc2cc(F)ccc2n2c(C(F)(F)F)nnc12`, `Nc1ccc(-c2nc3ccc(F)cc3s2)cc1` is lower in melting point: 298 to 302 °C for the first, 152 to 155 °C for the second.

Compared with `CC(C)(C)OC(=O)N1CCN(C(=O)C2C3CCC(O3)C2C(=O)O)CC1` (centres undefined), `CC(=O)OCCN1CCN(C(=O)Cn2c(=O)sc3ncc(Cl)cc32)CC1` is lower in melting point: 206 to 208 °C for the first, 153 to 155 °C for the second.

First: CN(CCOc1ccc(CC(F)C(N)=O)cc1)c1nc2ccccc2o1 (centres undefined)
Second: O=C(O)CCc1ccc(OCc2sc3ccccc3c2Cl)cc1
The melting point of the first is higher: 168 to 170 °C for the first, 136 to 137 °C for the second.

Compared with `COc1cnc(N2CCN(c3ccc(-n4c(C)nn(CC(=O)c5ccc(Cl)cc5)c4=O)cc3)CC2)nc1`, `N#Cc1ccc(N2CCN(c3ccncc3)CC2)cc1` is lower in melting point: 220 °C for the first, 155 to 158 °C for the second.

`COC1C=C(C)C(=O)CC(C)(C)C1OC(=O)c1ccc(N)cc1` (centres undefined) and `C#CCNC(=O)c1ccc(C(=O)OC)cc1` cannot be ordered by melting point: 138 to 161 °C for the first, 152 to 153 °C for the second.

First: COc1ccc2c(c1)N(CCNC(C)=O)C(c1ccccc1)CO2 (centres undefined)
Second: COC(=O)c1ccccc1-n1c(CCl)nc2c(OC)cccc2c1=O
The melting point of the first is lower: 125 to 126 °C for the first, 208 to 210 °C for the second.

`CN=C(C)c1cc(Oc2ccc(C(F)(F)F)cc2Cl)ccc1[N+](=O)[O-]` and `O=[N+]([O-])c1cc([N+](=O)[O-])c(N(SC(Cl)(Cl)Cl)c2cc(C(F)(F)F)ccc2Cl)c(C(F)(F)F)c1` cannot be ordered by melting point: 133 to 137 °C for the first, 134 to 137 °C for the second.

Compared with `O=C(O)c1ccccc1Oc1ccc(C(F)(F)F)cc1NS(=O)(=O)c1ccc(C(F)(F)F)cc1`, `COC(=O)C12COc3ccccc3C1NN(C(=O)Nc1ccc(C(F)(F)F)cc1)C2` (centres undefined) is higher in melting point: 175 °C for the first, 211 to 212 °C for the second.

Compared with `CCCN1C(=O)C2(CC(C)C)CC(c3ccc([N+](=O)[O-])cc3)(C2)C1=O`, `CC(C)Cc1c2c(nn1C)c(N)nc1ccccc12` is higher in melting point: 87 to 88 °C for the first, 213 to 214 °C for the second.

Compared with `Cn1c2ccc(Cl)cc2c2c(CO)nn(-c3ccccc3)c(=O)c21`, `CC(C)(C)c1ccc2c(c1)cc(-c1ccccc1)n2-c1ccc(O)c(C(=O)O)c1` is lower in melting point: 278 to 280 °C for the first, 271 to 273 °C for the second.

First: CC1(C)Oc2cc3nonc3cc2C(N2CCC(Br)CC2=O)C1O (centres undefined)
Second: COc1c(C)cc(C)c(C2CC(=O)C=C(O)C2)c1C (centres undefined)
The melting point of the first is higher: 250 to 253 °C for the first, 165 to 166 °C for the second.

First: CCCCc1c(C)cc(C)cc1O
Second: CCC(=O)C(Cc1cc(O)c(O)c([N+](=O)[O-])c1)C(=O)CC
The melting point of the first is lower: 65 to 67 °C for the first, 126 to 131 °C for the second.

First: Cc1cc(C(=O)N2Cc3ccc(C(=O)N(C)C[C@@H]4OC(=O)O[C@H]4[C@H](O)[C@H]4COC(=O)O4)n3Cc3ccccc32)ccc1C1=CCCCC1
Second: Cc1[nH]c(/C=C2\C(=O)Nc3cc(NC(=O)NC(=O)c4ccccc4)ccc32)c(C)c1C(=O)O
The melting point of the first is lower: 162 to 168 °C for the first, 270 to 275 °C for the second.

First: CC(=O)OC1CSC(Oc2cccc(-c3cccnc3)c2)C(OC(C)=O)C1OC(C)=O (centres undefined)
Second: N#Cc1ccc(-c2cncc(OC3SCC(O)C(O)C3O)c2)cc1C#N (centres undefined)
The melting point of the first is lower: 123 to 126 °C for the first, 192 °C for the second.

`N[C@@H](Cc1cccc(OC(F)(F)C(F)F)c1)[C@H](O)c1ccnc(F)c1` (racemic) and `O[C@@H](CNCCOc1ccc2oc(-c3ccon3)cc2c1)c1cccc(Cl)c1` cannot be ordered by melting point: 119 to 120 °C for the first, 112 to 120 °C for the second.

Compared with `Nc1ccc(CO)cc1[N+](=O)[O-]`, `C[C@@H](C(=O)O)N(C)C(=O)c1cc(C(F)(F)F)cc([N+](=O)[O-])c1N` is higher in melting point: 100 to 101 °C for the first, 136 °C for the second.

First: CC(=O)Nc1nc(CCc2ccc(NC(N)=S)cc2)c(Cc2ccc(S(C)(=O)=O)cc2)s1
Second: CC(C)(NC(=O)C(O)C(Cc1ccc(S(C)(=O)=O)cc1)NC(=O)OCc1ccccc1)C(=O)O (centres undefined)
The melting point of the first is lower: 102 to 103 °C for the first, 146 to 147 °C for the second.

First: CCCCCc1c(C(=O)NN2CC=CCC2)nn(-c2ccc(Cl)cc2Cl)c1-c1ccc(Cl)cc1
Second: CC1CC(C)CN(Cc2ccc(C=CC(=O)Nc3ccc(-c4ccc(Cl)cc4)cc3)cc2)C1 (centres undefined)
The melting point of the first is lower: 150 °C for the first, 217 to 218 °C for the second.

First: CN(C)c1cnc(-c2cccc(Cl)c2Cl)c(N)n1
Second: NS(=O)(=O)Oc1c(Cl)cccc1Cl
The melting point of the first is higher: 147 to 148 °C for the first, 108 to 110 °C for the second.

First: Cc1ccc(Oc2ccc(-c3ccn(CC4CC4)c(=O)c3Cl)cc2F)c(C)n1
Second: COc1ccc(-c2ccc(C=O)c3ccccc23)cc1F
The melting point of the first is higher: 143 °C for the first, 137 to 138 °C for the second.

First: c1ccc(-c2c[nH]nc2-c2ccccc2)cc1
Second: O=C(NC(=O)C(c1ccccc1)c1ccccc1)OC1CCCC1
The melting point of the first is higher: 150 to 152 °C for the first, 120 to 123 °C for the second.

First: CCOC(=O)CCN(CC(N)=O)C(=O)Cn1cc(C)c(=O)[nH]c1=O
Second: CCOC(=O)CC(=O)C(C)(C)Sc1ccccc1
The melting point of the first is higher: 207 to 208 °C for the first, 44 to 45 °C for the second.

First: CCOC(Cc1ccc(OCc2nc3ccc(OC)cc3n2C)cc1)C(=O)OC (centres undefined)
Second: COc1ccc(COc2ccc3[nH]c4c([N+](=O)[O-])ccc(Cl)c4c(=O)c3c2)cc1
The melting point of the first is lower: 88 to 92 °C for the first, 187 to 189 °C for the second.

First: CCC1(CCCCCl)C(=O)Nc2cc(F)c(Cl)cc21 (centres undefined)
Second: CCC1(CCCCCl)C(=O)Nc2ccc(Cl)cc21 (centres undefined)
The melting point of the first is higher: 131 to 133 °C for the first, 116 to 117 °C for the second.

Compared with `CCc1cnc2c(NC(=O)c3c(Cl)cccc3Cl)cccc2c1C(=O)O`, `O=C(C=Cc1ccccc1)c1c(Cl)cccc1Cl` is lower in melting point: 231 to 233 °C for the first, 98.2 to 99.2 °C for the second.

Compared with `CN1C2CC(OC(=O)Cc3ccccc3)CC1C(O)C2O` (centres undefined), `CC(=O)Nc1nc(CN2CCC(c3c[nH]c4ccccc34)CC2)cs1` is higher in melting point: 120 to 122 °C for the first, 204 to 207 °C for the second.

First: CCOC(=O)c1cc2c3n(ccc-2n1)CC(C(OCC)OCC)=N3
Second: CCOC(=O)c1cc(NC(=O)C(Cc2ccc(Cl)c(Cl)c2)NC(=O)OC(C)(C)C)c[nH]1 (centres undefined)
The melting point of the first is higher: 242 to 244 °C for the first, 175 to 185 °C for the second.

First: Clc1ccc(Oc2nc(Cl)nc(Cl)n2)c(Cl)c1
Second: CCC(CC)Nc1nc(C)nc(N2CCc3cc(Cl)cc(Cl)c32)c1C#N
The melting point of the first is lower: 120 to 122 °C for the first, 163 to 165 °C for the second.

First: CCCn1c(=O)c2[nH]c(/C=C/c3ccc4c(c3)OCCO4)nc2n(CCC)c1=O
Second: Cc1nnc2n1-c1sc(CC(=O)N3CCOCC3)cc1C(c1ccccc1Cl)=NC2
The melting point of the first is higher: greater than 275 °C for the first, 143 to 144 °C for the second.

Compared with `COc1cc2c(cc1O)CCN(Cc1ccc(OC)c(OC)c1)C2`, `COc1cc2c(Nc3cccc(C)c3)ncnc2cc1OC(C)C` is higher in melting point: 146 to 147 °C for the first, 218 to 221 °C for the second.

First: Nc1cc(Sc2ccc3c(C(=O)O)cccc3c2)ncn1
Second: Cc1cccc(Nc2ccccc2C(=O)OCc2ccccn2)c1C
The melting point of the first is higher: 264 to 266 °C for the first, 63 to 64 °C for the second.

First: COc1cc(OC)cc(C2(Cl)C(C)(C)C2(C)C)c1
Second: COc1cc2c(c3c1OC(C)(C)C3)C(c1ccn(-c3cc(C(N)=O)ccn3)c(=O)c1)=NC(C)(C)C2
The melting point of the first is lower: 119 to 121 °C for the first, 174 to 175 °C for the second.

First: COc1cccc(NC(=NC#N)NC(NC(=O)c2ccc(Cl)cc2)C(C)(C)C)c1 (centres undefined)
Second: Cc1ccc(C(=O)NC(NC(=S)Nc2ccc(Cl)nc2)C(F)(F)F)cc1 (centres undefined)
The melting point of the first is lower: 173 to 175 °C for the first, 199 to 200 °C for the second.

Compared with `CC#CCOc1ccc(S(=O)(=O)N2CCOCC2C(=O)O)cc1` (centres undefined), `O=C(O)C1CCCN1S(=O)(=O)c1ccc(F)cc1` (centres undefined) is higher in melting point: 40 to 42 °C for the first, 145 to 148 °C for the second.

First: Cc1cc(C)nc(N(CCN(C(C)C)C(C)C)C(N)=O)n1
Second: Cc1cc(-c2cn[nH]c2N)cc(C)n1
The melting point of the first is lower: 134 to 136 °C for the first, 222 °C for the second.

First: Cc1ccc(CSCc2ccc(C)cc2)cc1
Second: COP(=O)(Cc1ccc(-c2nc3ccccc3s2)cc1)OC
The melting point of the first is lower: 74 to 76 °C for the first, 130 °C for the second.

First: O=C(CSCc1cc(Br)cc2[nH]c(=O)c(=O)[nH]c12)Nc1ccccc1
Second: CC(=O)Nc1ccccc1NS(=O)(=O)c1cc(C(=O)O)cc([N+](=O)[O-])c1Cl
The melting point of the first is higher: greater than 250 °C for the first, 225 to 227 °C for the second.

First: O=C(Cn1nc(-c2ccccc2O)nc1-c1ccccc1O)N1CCOCC1
Second: CCCCCCCCCCN1CCC2(CC1)CSC1=C(O2)c2ccccc2C(=O)C1=O
The melting point of the first is higher: 149 to 151 °C for the first, 110 to 111 °C for the second.

First: CCn1c(N)c(C(=O)NC)c(=O)c2ccc(-c3ccc(NS(=O)(=O)c4cccc(Cl)c4Cl)c(F)c3)nc21
Second: CCOc1ccc(-c2[nH]nc3c2C(=O)c2c(NC(C)=O)cccc2-3)cc1
The melting point of the first is higher: 333 °C for the first, 288 °C for the second.

First: COCc1cccc(COC)c1C#N
Second: CC(=O)Nc1c(C#N)oc2ccccc12
The melting point of the first is lower: 80 to 81 °C for the first, 164 to 167 °C for the second.

First: COc1cc(-c2nc3cnc(OC[C@H](C)NC(C)=O)cc3o2)cc(F)c1OCC1CC1
Second: CCOc1nn(-c2ccc(C(F)(F)F)cn2)cc1CCCOc1cccc(OC)c1CCC(=O)O
The melting point of the first is higher: 163 °C for the first, 110 to 111 °C for the second.

First: CCOc1c(C#CCO)cc(C(C)(C)C)cc1C(C)(C)C
Second: CCCC(C)(C)C(=O)Oc1ccc(C(=O)CNC(C)(C)C)cc1O
The melting point of the first is lower: 82 to 84 °C for the first, 128 to 130 °C for the second.

First: O=Cc1ccc(-c2ccc3ncnc(Nc4ccc(OCc5cccc(F)c5)c(Cl)c4)c3c2)s1
Second: O=Cc1ccc(OCc2ccsc2)cc1OC(C(=O)O)c1ccccc1 (racemic)
The melting point of the first is higher: 252 °C for the first, 172 to 174 °C for the second.

First: O=C1CCC(c2ccccc2)(c2ccccc2)C2CN(C(Cc3ccccc3)=NCc3ccccc3F)CC12 (centres undefined)
Second: Cc1cccc(OCCCN2CCC(OC(c3ccccc3)c3ccccc3)CC2)c1NS(C)(=O)=O
The melting point of the first is higher: 160 °C for the first, 132 °C for the second.

First: CN(C)Cc1ccc(CSCCNC(=N)N[N+](=O)[O-])o1
Second: CNC(=O)N(N=C(C)C)C(=O)c1ccc(Cl)cc1
The melting point of the first is lower: 103 to 104 °C for the first, 119 to 123 °C for the second.

First: Oc1ccc(Sc2ccc(-c3ccc(Sc4ccc(O)cc4)cc3)cc2)cc1
Second: Cc1ccc(/C=C/c2ccc3nc(C(=O)N[C@@H](Cc4ccc(OCc5ccccc5)cc4)C(=O)O)cn3c2)cc1
The melting point of the first is lower: 214 to 217 °C for the first, 266 to 267 °C for the second.

Compared with `CC(=O)c1cc(C#N)c(=O)[nH]c1-c1ccncc1`, `O=C(O)C1=c2ccccc2=CC=C2CC=CC=C21` is lower in melting point: 255 to 257 °C for the first, 129 °C for the second.

First: N#Cc1ccc(C2(n3ccnc3)Cc3ccccc3C2)cc1
Second: CS(=O)(=O)NC(=O)C1(CCCCCCCCCCCCC2(C(=O)NCCO)CC2)CC1
The melting point of the first is higher: 150 to 152 °C for the first, 104 to 105 °C for the second.

`CCCCC(=NO)C(=O)OCC` gave a melting point of 43.2 to 46.8 °C.
